Our source for the IC50 and melting point values is publication PMC3731256, “Optimization of Substituted 6-Salicyl-4-Anilinoquinazoline Derivatives as Dual EGFR/HER2 Tyrosine Kinase Inhibitors” (PLoS ONE, 2013).

The structures appear in SMILES notation. Where two headings read alike, the source gives them in different places.

In series [1] the test system is A431 cells. The series can be described thus: Antiproliferation WST-1 assay, A431. The series is classed as cell-based, human. As to the method: (§1) WST-1 is better than MTT for analyzing cell proliferation, because it can be reduced to soluble formazan by dehydrogenase in mitochondria and has little toxicity to cells. Cell proliferation was determined using WST-1 dye (Beyotime Inst Biotech, China) according to manufacture’s instructions. Brieﬂy, 5 × 10^3 cells per well were seeded in a 96-well plate, grown at 37 ℃ for 24 h, and then placed in serum-starved conditions for a further 6 h. Subsequently, cells were treated with compounds (Table 1) at increasing concentrations in the presence of 10% FBS for 24 or 48h. After 10 µL WST-1 dye was added to each well, cells were incubated at 37 ℃ for 2 h and the absorbance was ﬁnally determined at 450 nm using a microplate reader.

For series [2], the system named is MCF-7 cells. The series can be described thus: Antiproliferation WST-1 assay, MCF-7. The series is classed as cell-based, human. How it is done:
as §1

For series [3], the system named is A549 cells. Briefly: Antiproliferation WST-1 assay, A549. The series is classed as cell-based, human. How it is done: as §1
Series [4] has as its target T1, human EGFR (Homo sapiens, UniProt P00533).
T1 construct: the cytoplasmic domain (amino acids 669-1210) of human EGFR; FLAG (DYKDDDD) (N); made in house
Briefly: EGFR kinase assay ([γ-32P] ATP, poly-Glu-Tyr). Format: biochemical. The settings on record: phosphorylation of poly-Glu-Tyr copolymer; mean, >1 determination; read-out: Enzyme activity IC50 against EGFR kinase. As to the method:
(§2) The expressed HER2 kinase and EGFR kinase were purified by anti-FLAG M2 affinity gel (Sigma-Aldrich, USA). The HER2 and EGFR kinase assays were performed using radiolabeled [γ-^32P] ATP (GEHealthcare, USA) in 96-well plates. The kinase reactions were performed in 50 mmol/L Tris-HCl, pH7.5, 5 mmol/L MnCl2, 0.01% Tween-20 and 2 mmol/L DTT containing 0.9 μCi of [γ-^32P] ATP per reaction, 50 μmol/L ATP, 5 μg/mL poly-Glu-Tyr (4:1) and 0.25 μg/mL of purified Her2 or EGFR cytoplasmic domain in a total volume of 50 μL. […] Kinase reactions were initiated by adding ATP. After the kinase reaction incubated for 10 minutes at room temperature, reactions were terminated by the addition of 10% (final concentration) trichloroacetic acid. The [γ-^32P]-phosphorylated proteins were filtered in a harvest plate (Millipore, USA) with a cell harvester (PerkinElmer, USA) and washed free of [γ-^32P] ATP with 3% phosphoric acid. The plates were dried, followed by the addition of 25 μL of MicroScintO (PerkinElmer, USA). Radioactivity was counted by a Topcount scintillation counter (PerkinElmer, USA).

In series [5] the target is T2, human HER2 (Homo sapiens, UniProt P04626).
T2 construct: The cytoplasmic domain (amino acids 676-1255) of human HER2; FLAG (DYKDDDD) (N); made in house
The series can be described thus: HER2 kinase assay ([γ-32P] ATP, poly-Glu-Tyr). The series is classed as biochemical. The settings on record: phosphorylation of poly-Glu-Tyr copolymer; mean, >1 determination; read-out: Enzyme activity IC50 against HER2 kinase. As to the method:
as §2

Setting [6] is: Homo sapiens, MCF7, WST-1 assay, MCF-7 breast cancer, Her2/neu overexpression, read-out: Cellular IC50, MCF-7.
[7] abbreviates: WST-1 assay, A549 carcinomic human alveolar basal epithelial cell, read-out: Cellular IC50, A549.
The mark [8] stands for this setting: Homo sapiens, A-431, WST-1 assay, A431, overexpression of EGFR, read-out: Cellular IC50, A431.
[9] abbreviates: WST-1 assay, A431, overexpression of EGFR, read-out: Cellular IC50, A431.
The mark [10] stands for this setting: WST-1 assay, MCF-7 breast cancer, Her2/neu overexpression, read-out: Cellular IC50, MCF-7.

T2 sequence (P04626 676-1255): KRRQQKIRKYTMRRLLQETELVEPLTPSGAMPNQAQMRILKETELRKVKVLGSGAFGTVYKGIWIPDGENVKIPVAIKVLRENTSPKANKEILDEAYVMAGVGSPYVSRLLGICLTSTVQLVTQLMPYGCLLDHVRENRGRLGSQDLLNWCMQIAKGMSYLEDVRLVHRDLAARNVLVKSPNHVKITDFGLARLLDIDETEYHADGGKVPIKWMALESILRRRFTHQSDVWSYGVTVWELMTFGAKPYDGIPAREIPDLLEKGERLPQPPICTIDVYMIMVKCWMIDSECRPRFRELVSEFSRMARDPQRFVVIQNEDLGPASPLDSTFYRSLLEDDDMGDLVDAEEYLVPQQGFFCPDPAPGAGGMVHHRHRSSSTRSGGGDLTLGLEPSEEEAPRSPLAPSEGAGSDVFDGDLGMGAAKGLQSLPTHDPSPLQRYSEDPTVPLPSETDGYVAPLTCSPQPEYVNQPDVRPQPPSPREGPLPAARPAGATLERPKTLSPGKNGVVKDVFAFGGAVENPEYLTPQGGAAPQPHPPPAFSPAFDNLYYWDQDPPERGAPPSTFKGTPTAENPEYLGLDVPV
T1 sequence (P00533 669-1210): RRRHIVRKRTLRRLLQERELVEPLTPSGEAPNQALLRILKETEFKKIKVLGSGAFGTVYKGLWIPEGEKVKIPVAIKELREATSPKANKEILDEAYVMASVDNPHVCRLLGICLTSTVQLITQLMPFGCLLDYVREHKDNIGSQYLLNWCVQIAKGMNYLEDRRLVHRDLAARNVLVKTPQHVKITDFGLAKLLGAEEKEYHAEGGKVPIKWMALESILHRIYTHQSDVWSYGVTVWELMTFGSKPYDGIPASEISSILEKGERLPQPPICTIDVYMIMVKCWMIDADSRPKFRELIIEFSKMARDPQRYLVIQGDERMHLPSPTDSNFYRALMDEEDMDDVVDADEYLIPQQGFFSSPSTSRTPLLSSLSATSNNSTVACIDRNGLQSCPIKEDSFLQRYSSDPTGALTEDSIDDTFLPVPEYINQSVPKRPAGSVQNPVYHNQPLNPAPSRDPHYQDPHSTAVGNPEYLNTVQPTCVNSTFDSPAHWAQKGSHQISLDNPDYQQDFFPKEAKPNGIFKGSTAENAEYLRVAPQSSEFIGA

Turning to `Nc1ccc2ncnc(Nc3cccc(Br)c3)c2c1` [Compound 7, N4-(3-bromophenyl)quinazoline-4,6-diamine], the IC50 (as a rule, the concentration that inhibits the measured activity by half) in series [1] (Homo sapiens, A-431, read-out: Cellular IC50, A431) is less than 1000 nM; in series [2] (setting [6]), less than 1000 nM.

For `Oc1ccc(Cl)cc1CNc1ccc2ncnc(Nc3cccc(Br)c3)c2c1` [Compound 9, 2-((4-(3-bromophenylamino)quinazolin-6-ylamino)methyl)-4-chlorophenol], the melting point – broadly, the temperature of the solid-liquid transition – lay within 230 to 232 °C. Also, the IC50 in series [3] (setting [7]) stood at 2370 ± 89 nM. The IC50 in series [1] (setting [8]) was less than 1000 nM. Further, the IC50 in series [1] (setting [9]) turned out to be 980 ± 3 nM. Further, the IC50 in series [4] is 410 ± 24 nM. The IC50 in series [5] is 1700 ± 51 nM. Also, in series [2] (setting [6]), the IC50 is less than 1000 nM. Besides, in series [2] (setting [10]), the IC50 worked out at 770 ± 8 nM.

Consider `Oc1c(Cl)cc(Cl)cc1CNc1ccc2ncnc(Nc3cccc(Br)c3)c2c1` [Compound 10, 2-((4-(3-bromophenylamino)quinazolin-6-ylamino)methyl)-4,6-dichlorophenol], for which the melting point lay in the range of 214 to 216 °C. The IC50 in series [3] (setting [7]) was determined as 1930 ± 71 nM. In series [1] (setting [8]), the IC50 came to 1030 ± 27 nM. Further, the IC50 in series [4] came out at 720 ± 36 nM. Also, the IC50 in series [5] is 1100 ± 95 nM. Besides, the IC50 in series [2] (setting [6]) turned out to be 840 ± 4 nM.

Consider `Oc1ccc(Br)cc1CNc1ccc2ncnc(Nc3cccc(Br)c3)c2c1` [Compound 11, 4-bromo-2-((4-(3-bromophenylamino)quinazolin-6-ylamino)methyl)phenol], for which the melting point is 189 to 191 °C. Moreover, the IC50 in series [3] (setting [7]) was found to be 2130 ± 128 nM. Further, the half-inhibitory concentration (IC50) in series [1] (setting [8]) was 870 ± 9 nM. In addition, in series [4], the IC50 worked out at 570 ± 8 nM. In addition, in series [5], the IC50 was 1400 ± 3 nM. Besides, in series [2] (setting [6]), the IC50 was 900 ± 18 nM.

`Oc1c(Br)cc(Br)cc1CNc1ccc2ncnc(Nc3cccc(Br)c3)c2c1` [Compound 12, 2,4-dibromo-6-((4-(3-bromophenylamino)quinazolin-6-ylamino)methyl)phenol] displayed a melting point of 169 to 171 °C. In addition, the IC50 in series [3] (setting [7]) was 1820 ± 62 nM. For the same molecule, in series [1] (setting [8]), the IC50 is less than 1000 nM. In addition, the IC50 in series [1] (setting [9]) was 1140 ± 36 nM. For the same molecule, the IC50 in series [4] turned out to be 950 ± 72 nM. For the same molecule, in series [5], the IC50 worked out at 980 ± 2 nM. In addition, the IC50 in series [2] (setting [6]) is less than 1000 nM. The IC50 in series [2] (setting [10]) is 1070 ± 16 nM.

In turn, `Oc1ccc(Cl)cc1CNc1ccc2ncnc(Nc3cccc(Cl)c3)c2c1` [Compound 13, 4-chloro-2-((4-(3-chlorophenylamino)quinazolin-6-ylamino)methyl)phenol] displayed a melting point of 238 to 240 °C. Besides, the IC50 in series [3] (setting [7]) is 2170 ± 49 nM. The IC50 in series [1] (setting [8]) is less than 1000 nM. For the same molecule, in series [1] (setting [9]), the IC50 came out at 1260 ± 51 nM. In series [4], the IC50 stood at 830 ± 65 nM. In series [5], the IC50 is 2300 ± 34 nM. Further, the concentration for half-maximal inhibition (IC50) in series [2] (setting [6]) is less than 1000 nM. The IC50 in series [2] (setting [10]) turned out to be 920 ± 12 nM.

`Oc1c(Cl)cc(Cl)cc1CNc1ccc2ncnc(Nc3cccc(Cl)c3)c2c1` [Compound 14, 2,4-dichloro-6-((4-(3-chlorophenylamino)quinazolin-6-ylamino)methyl)phenol]: the melting point was 211 to 213 °C. For the same molecule, the IC50 in series [3] (setting [7]) was 1590 ± 38 nM. Besides, the IC50 in series [1] (setting [8]) was 920 ± 62 nM. Further, the IC50 in series [4] worked out at 650 ± 9 nM. In series [5], the IC50 was 920 ± 9 nM. The IC50 in series [2] (setting [6]) was 800 ± 5 nM.

Molecule `Oc1ccc(Br)cc1CNc1ccc2ncnc(Nc3cccc(Cl)c3)c2c1` [Compound 15, 4-bromo-2-((4-(3-chlorophenylamino)quinazolin-6-ylamino)methyl)phenol] gave a melting point of 227 to 229 °C. For the same molecule, in series [3] (setting [7]), the IC50 turned out to be 2120 ± 22 nM. In addition, in series [1] (setting [8]), the IC50 was 960 ± 5 nM. Moreover, the IC50 in series [4] was determined as 760 ± 73 nM. The IC50 in series [5] came out at 3800 ± 2 nM. The IC50 in series [2] (setting [6]) was determined as 810 ± 33 nM.

With `C#Cc1cccc(Nc2ncnc3cc(OCCOC)c(OCCOC)cc23)c1` [Erlotinib, reference compound], the IC50 in series [3] (Homo sapiens, A549, read-out: Cellular IC50, A549) worked out at 920 ± 13 nM; in series [2] (Homo sapiens, MCF7, read-out: Cellular IC50, MCF-7) it was 1070 ± 28 nM.
